US11795199B2, “Peptide targeting Mycobacterium tuberculosis toxin-antitoxin system and use thereof” (Seoul National University R&DB Foundation, priority 2017, dated 2023)

Target: VapBC26 protein complex (Mycobacterium tuberculosis, UniProt O53778)
Sequence (O53778 whole entry, one chain of several): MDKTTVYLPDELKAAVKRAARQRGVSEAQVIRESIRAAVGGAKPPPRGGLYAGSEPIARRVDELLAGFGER

| Sequence | inhibition of VapBC26 toxin-antitoxin complex formation (binding inhibitor, seen as increased ribonuclease activity) | concentration of VapBC26 from which the results of RFU were similar [µM] | ribonuclease activity of VapBC26 compared with addition of SEQ. ID. NO: 11 and SEQ. ID. NO: 13 peptides |
| --- | --- | --- | --- |
| YLVATRVGVDAELAV | acted as a VapBC26 binding inhibitor |  |  |
| DAELAVLRELAG [mimetic peptide for VapC26 α4] | acted as a VapBC26 binding inhibitor | ≥ 10 | more increased |
| PYVVAELDYLVATRVG [mimetic peptide for VapC26 α3] | acted as a VapBC26 binding inhibitor |  |  |
